Data: patent US6677277B1, “Substituted sulphonyl amino(thio)carbonyl compounds and their use as herbicides” (Bayer Aktiengesellschaft, priority 1996, dated 2004)

Experiments:
Assay type in all cases: in vivo
weeds [1] = experiment: Post-emergence test; conditions: cf. Tables B-1 to B-4
Description: (§1) Post-emergence Test Solvent: 5 parts by weight of acetone Emulsifier: 1 part by weight of alkylaryl polyglycol ether To produce a suitable preparation of active compound, 1 part by weight of active compound is mixed with the stated amount of solvent, the stated amount of emulsifier is added and the concentrate is diluted with water to the desired concentration. Test plants which have a height of 5-15 cm are sprayed with the preparation of the active compound in such a way as to apply the particular amounts of active compound desired per unit area. The concentration of the spray liquor is chosen so that the particular amounts of active compound desired are applied in 1000 l of water/ha. After three weeks, the degree of damage to the plants is rated in % damage in comparison to the development of the untreated control. The figures denote: [table]

Solanum [2] = experiment: Pre-emergence test/greenhouse; conditions: after three weeks
Description: (§2) Pre-emergence Test Solvent: 5 parts by weight of acetone Emulsifier: 1 part by weight of alkylaryl polyglycol ether To produce a suitable preparation of active compound, 1 part by weight of active compound is mixed with the stated amount of solvent, the stated amount of emulsifier is added and the concentrate is diluted with water to the desired concentration. Seeds of the test plants are sown in normal soil. After about 24 hours, the soil is sprayed with the preparation of the active compound in such a way as to apply the particular amounts of active compound desired per unit area The concentration of the spray liquor is chosen so that the particular amounts of active compound desired are applied in 1000 l of water/ha. After three weeks, the degree of damage to the plants is rated in % damage in comparison to the development of the untreated control. The figures denote: [table]

Amaranthus = experiment: Pre-emergence test/greenhouse; conditions: after three weeks
Description: as §2

Alopecurus [3] = experiment: Pre-emergence test/greenhouse; conditions: after three weeks
Description: as §2

Chenopodium = experiment: Pre-emergence test/greenhouse; conditions: after three weeks
Description: as §2

Lolium [4] = experiment: Pre-emergence test/greenhouse; conditions: after three weeks
Description: as §2

Maize = experiment: Pre-emergence test/greenhouse; conditions: after three weeks
Description: as §2

Matricaria = experiment: Pre-emergence test/greenhouse; conditions: after three weeks
Description: as §2

Sorghum [5] = experiment: Pre-emergence test/greenhouse; conditions: after three weeks
Description: as §2

weeds [6] = experiment: Pre-emergence test; conditions: cf. Tables A-1 to A-5
Description: as §2

Solanum [7] = experiment: Post-emergence test/greenhouse; conditions: post-emergence; for % damage, Solanum: after three weeks
Description: as §1

Ipomoea = experiment: Post-emergence test/greenhouse; conditions: for % damage, Ipomoea: after three weeks
Description: as §1

Stellaria = experiment: Post-emergence test/greenhouse; conditions: for % damage, Stellaria: after three weeks
Description: as §1

Alopecurus [8] = experiment: Post-emergence test/greenhouse; conditions: after three weeks
Description: as §1

Xanthium = experiment: Post-emergence test/greenhouse; conditions: post-emergence; for % damage, Xanthium: after three weeks
Description: as §1

Wheat = experiment: Post-emergence test/greenhouse; conditions: 60 g ai./ha; for % damage, Wheat: after three weeks
Description: as §1

Lolium [9] = experiment: Post-emergence test/greenhouse; conditions: after three weeks
Description: as §1

Sorghum [10] = experiment: Post-emergence test/greenhouse; conditions: post-emergence, after three weeks
Description: as §1

[11] = 60 g ai./ha, rated after three weeks vs untreated control

SMILES	activity against weeds (weeds [1])	% damage, Solanum (Solanum [2]; 60 g ai./ha) [%]	% damage, Amaranthus (Amaranthus; 60 g ai./ha) [%]	% damage, Alopecurus (Alopecurus [3]; 60 g ai./ha) [%]	% damage, Chenopodium (Chenopodium; 60 g ai./ha) [%]	% damage, Lolium (Lolium [4]; 60 g ai./ha) [%]	% damage, Maize (Maize; 60 g ai./ha) [%]	% damage, Sorghum (Sorghum [5]; 60 g ai./ha) [%]	activity against weeds (weeds [6])	% damage, Solanum (Solanum [7]; 60 g ai./ha) [%]	% damage, Ipomoea (Ipomoea; 60 g ai./ha) [%]	% damage, Stellaria (Stellaria; 60 g ai./ha) [%]	% damage, Alopecurus (Alopecurus [8]; 60 g ai./ha) [%]	% damage, Xanthium (Xanthium; 60 g ai./ha) [%]	% damage, Wheat (Wheat) [%]	% damage, Lolium (Lolium [9]; 60 g ai./ha) [%]	% damage, Sorghum (Sorghum [10]; 60 g ai./ha) [%]	% damage, Solanum (Solanum [2]; 125 g ai./ha) [%]	% damage, Amaranthus (Amaranthus; 125 g ai./ha) [%]	% damage, Alopecurus (Alopecurus [3]; 125 g ai./ha) [%]	also measured
CCOc1nn(C(=O)NS(=O)(=O)c2c(OC)cccc2SC)c(=O)n1C [Example 20]	very strong activity	100	100	100	100	95	0	100	very strong activity	100	95	100	95	95	20	90	100	–	–	–	% damage, Matricaria (Matricaria; 60 g ai./ha): 100%
CCOc1nn(C(=O)NS(=O)(=O)c2c(SCC)cccc2C(F)(F)F)c(=O)n1C [Example 11]	very strong activity	–	–	–	–	–	–	–	very strong activity	–	–	–	–	–	–	–	–	100	100	100	% damage, Chenopodium (Chenopodium; 125 g ai./ha): 100%; % damage, Lolium (Lolium [4]; 125 g ai./ha): 90%; % damage, Maize (Maize; 125 g ai./ha): 10%; % damage, Matricaria (Matricaria; 125 g ai./ha): 100%; % damage, Sorghum (Sorghum [5]; 125 g ai./ha): 100%; Solanum, % damage (Solanum [7]; [11]): 70%; Ipomoea, % damage (Ipomoea; [11]): 90%; Stellaria, % damage (Stellaria; [11]): 90%; Xanthium, % damage (Xanthium; [11]): 90%; Wheat, % damage (Wheat; rated after three weeks vs untreated control): 0%
CCSc1cccc(OC)c1S(=O)(=O)NC(=O)n1nc(OC)n(C)c1=O [Example 30]	very strong activity	95	95	100	90	100	0	95	very strong activity	–	–	–	–	–	–	–	–	–	–	–	% damage, Matricaria (Matricaria; 60 g ai./ha): 95%; % damage, Solanum (Solanum [7]; 125 g ai./ha): 100%; % damage, Ipomoea (Ipomoea; 125 g ai./ha): 90%; % damage, Stellaria (Stellaria; 125 g ai./ha): 100%; % damage, Alopecurus (Alopecurus [8]; 125 g ai./ha): 95%; % damage, Xanthium (Xanthium; 125 g ai./ha): 100%; % damage, Lolium (Lolium [9]; 125 g ai./ha): 90%; % damage, Sorghum (Sorghum [10]; 125 g ai./ha): 100%
COc1cccc(SC)c1S(=O)(=O)NC(=O)n1nc(OC)n(C)c1=O [Example 21]	very strong activity	100	100	100	100	100	20	100	very strong activity	100	90	100	100	–	–	95	100	–	–	–	% damage, Matricaria (Matricaria; 60 g ai./ha): 90%
CCOc1nn(C(=O)NS(=O)(=O)c2c(OC(F)(F)F)cccc2SCC)c(=O)n1C [Example 6]	very strong activity	–	–	–	–	–	–	–	very strong activity	95	90	95	60	95	5	50	70	100	100	100	% damage, Chenopodium (Chenopodium; 125 g ai./ha): 100%; % damage, Lolium (Lolium [4]; 125 g ai./ha): 100%; % damage, Maize (Maize; 125 g ai./ha): 0%; % damage, Matricaria (Matricaria; 125 g ai./ha): 100%; % damage, Sorghum (Sorghum [5]; 125 g ai./ha): 80%
CCc1nn(C(=O)NS(=O)(=O)c2c(OC(F)(F)F)cccc2SC)c(=O)n1C [Example 34]	very strong activity	95	90	100	90	80	20	90	very strong activity	95	80	80	90	95	20	70	100	–	–	–	–
CCc1nn(C(=O)NS(=O)(=O)c2c(OC)cccc2SC)c(=O)n1C [Example 22]	very strong activity	–	–	–	–	–	–	–	very strong activity	80	80	90	90	–	–	90	95	100	100	100	% damage, Lolium (Lolium [4]; 125 g ai./ha): 100%; % damage, Maize (Maize; 125 g ai./ha): 30%; % damage, Matricaria (Matricaria; 125 g ai./ha): 60%; % damage, Sorghum (Sorghum [5]; 125 g ai./ha): 80%
CCOc1nn(C(=O)NS(=O)(=O)c2c(SC)cccc2SC)c(=O)n1C [Example 52]	very strong activity	–	–	–	–	–	–	–	–	95	90	95	90	95	–	60	100	–	–	–	–
CCOc1nn(C(=O)NS(=O)(=O)c2c(OC)cccc2SCC)c(=O)n1C [Example 7]	very strong activity	–	–	–	–	–	–	–	very strong activity	95	95	100	95	–	10	95	95	100	100	100	% damage, Chenopodium (Chenopodium; 125 g ai./ha): 100%; % damage, Lolium (Lolium [4]; 125 g ai./ha): 100%; % damage, Maize (Maize; 125 g ai./ha): 0%; % damage, Matricaria (Matricaria; 125 g ai./ha): 70%; % damage, Sorghum (Sorghum [5]; 125 g ai./ha): 90%
